Source: patent publication EP4725957A1, “GROUP OF CYCLIC ALKALINE LIPOPEPTIDE COMPOUNDS, AND PREPARATION METHOD THEREFOR AND USE THEREOF” (Institute of Medicinal Biotechnology, Chinese Academy of …, priority 2023, dated 2024)
Values after ≈ are worked out from the molar mass of the structure shown. Bridge positions count the residues as written; N and C are the ends. Square brackets hold non-standard residues; d marks the D form. Peptide text beside a SMILES is read from it. * marks the point of attachment. Dab(CH2SO3H) = N[C@@H](CCNCS(=O)(=O)O)C(=O)O; Heptanoyl(6-Me) = CC(C)CCCCC(=O)*; Nonanoyl = CCCCCCCCC(=O)*; X1 = CC[C@H](C)CCCCC(=O)*; dDab = NCC[C@@H](N)C(=O)O; Heptanoyl = CCCCCCC(=O)*; Octanoyl = CCCCCCCC(=O)*; Orn = NCCC[C@H](N)C(=O)O; dDap = NC[C@@H](N)C(=O)O; Dab = NCC[C@H](N)C(=O)O; Dap = NC[C@H](N)C(=O)O

Experiments:
Format in all cases: cell-based
[1] = Nephrotoxicity assay: in vitro cytotoxicity of HK-2 cells by CCK-8 assay; conditions: human, HK-2 cells (human renal), 72 h incubation with drug-containing medium
Outline: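 Compounds in sterile water, diluted to final 500, 250, 200, 100, 50, 25 and 12.5 µg/mL, were applied for 72 h to human HK-2 kidney cells. Absorbance at 450 nm after 3 h CCK-8 gave viability against untreated wells, and IC50 came from logarithmic regression; three replicates.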

[2] = test system: Pseudomonas aeruginosa PAE19-3; conditions: PAE19-3
Outline: (§1)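 In this CLSI-based assay, serially halved compound (final 64–0.03 mg/L) was exposed to (2-4) × 10^5 CFU/mL bacteria in MH broth at 35-37°C for 16-20 h. The readout was the MIC.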

[3] = test system: Pseudomonas aeruginosa ATCC 27853; conditions: ATCC 27853
Outline: as §1

[4] = test system: Klebsiella pneumoniae KPN+19-15; conditions: KPN+19-15
Outline: as §1

[5] = test system: Escherichia coli ATCC BAA-2340 (KPC); conditions: ATCC BAA-2340
Outline: as §1

[6] = test system: Escherichia coli ATCC BAA-2523; conditions: ATCC BAA-2523
Outline: as §1

[7] = test system: Klebsiella pneumoniae ATCC BAA-1705 (KPC); conditions: ATCC BAA-1705
Outline: as §1

[8] = test system: Acinetobacter baumannii ABA19-1; conditions: ABA19-1
Outline: as §1

[9] = test system: Acinetobacter baumannii NCTC 13304 (OXA-27); conditions: NCTC 13304
Outline: as §1

Row | Structure (SMILES) | IC50 at 72 h [1] [µg/mL] | MIC [2] [µg/mL] | MIC [3] [µg/mL] | MIC [4] [µg/mL] | MIC [5] [µg/mL] | MIC [6] [µg/mL] | MIC [7] [µg/mL] | MIC [8] [µg/mL] | MIC [9] [µg/mL]
1 | CC(C)CCCCC(=O)N[C@@H](CCN)C(=O)N[C@H](C(=O)N[C@H](CCN)C(=O)N[C@H]1CCNC(=O)[C@H]([C@@H](C)O)NC(=O)[C@H](CCN)NC(=O)[C@H](CCN)NC(=O)[C@H]([C@@H](C)O)NC(=O)[C@@H](Cc2ccccc2)NC(=O)[C@H](CCN)NC1=O)[C@@H](C)O [Compound 12, 6-methylheptanoyl-Dab-Thr-D-Dab-ring(4-10)[Dab-Dab-D-Phe-Thr-Dab-Dab-Thr]] ({Heptanoyl(6-Me)}-[Dab]T[dDab][Dab][Dab][dF]T[Dab][Dab]T; lactam 4-C) | > 500 | 0.5 (≈ 0.425 µM) | 0.5 (≈ 0.425 µM) | ≤0.03 | ≤0.03 | ≤0.03 | 0.125 (≈ 0.106 µM) | 0.06 (≈ 0.051 µM) | ≤0.03
2 | CCCCCCC(=O)N[C@@H](CCN)C(=O)N[C@H](C(=O)N[C@@H](CN)C(=O)N[C@H]1CCNC(=O)[C@H]([C@@H](C)O)NC(=O)[C@H](CCN)NC(=O)[C@H](CCN)NC(=O)[C@H]([C@@H](C)O)NC(=O)[C@@H](Cc2ccccc2)NC(=O)[C@H](CCN)NC1=O)[C@@H](C)O [Compound 9, Heptanoyl-Dab-Thr-Dap-ring(4-10)[Dab-Dab-D-Phe-Thr-Dab-Dab-Thr]] (Heptanoyl-[Dab]T[Dap][Dab][Dab][dF]T[Dab][Dab]T; lactam 4-C) | > 500 | 0.25 (≈ 0.218 µM) | 0.125 (≈ 0.109 µM) | 0.03 (≈ 0.0261 µM) | 0.03 (≈ 0.0261 µM) | 0.03 (≈ 0.0261 µM) | 0.03 (≈ 0.0261 µM) | 0.03 (≈ 0.0261 µM) | 0.03 (≈ 0.0261 µM)
3 | CC[C@H](C)CCCCC(=O)N[C@@H](CCN)C(=O)N[C@H](C(=O)N[C@H](CN)C(=O)N[C@H]1CCNC(=O)[C@H]([C@@H](C)O)NC(=O)[C@H](CCN)NC(=O)[C@H](CCN)NC(=O)[C@H]([C@@H](C)O)NC(=O)[C@@H](Cc2ccccc2)NC(=O)[C@H](CCN)NC1=O)[C@@H](C)O [Compound 1, (S)-6-methyloctanoyl-Dab-Thr-D-Dap-ring(4-10)[Dab-Dab-D-Phe-Thr-Dab-Dab-Thr]] (X1-[Dab]T[dDap][Dab][Dab][dF]T[Dab][Dab]T; lactam 4-C) | > 500 | 0.125 (≈ 0.106 µM) | 0.03 (≈ 0.0255 µM) | ≤0.03 | ≤0.03 | ≤0.03 | ≤0.03 | ≤0.03 | ≤0.03
4 | CCCCCCCCC(=O)N[C@@H](CCN)C(=O)N[C@H](C(=O)N[C@H](CO)C(=O)N[C@H]1CCNC(=O)[C@H]([C@@H](C)O)NC(=O)[C@H](CN)NC(=O)[C@H](CCN)NC(=O)[C@H]([C@@H](C)O)NC(=O)[C@@H](Cc2ccccc2)NC(=O)[C@H](CCN)NC1=O)[C@@H](C)O [Compound 85, Nonanoyl-Dab-Thr-D-Ser-ring(4-10)[Dab-Dab-D-Phe-Thr-Dab-Dap-Thr]] (Nonanoyl-[Dab]T[dS][Dab][Dab][dF]T[Dab][Dap]T; lactam 4-C) | 357 ± 28.8 (≈ 307 µM) | 64 (≈ 55 µM) | >64 | 0.5 (≈ 0.429 µM) | 0.25 (≈ 0.215 µM) | 0.25 (≈ 0.215 µM) | 0.25 (≈ 0.215 µM) | 0.06 (≈ 0.0515 µM) | 0.03 (≈ 0.0258 µM)
5 | CC(C)CCCCC(=O)N[C@@H](CCN)C(=O)N[C@H](C(=O)N[C@H](CO)C(=O)N[C@H]1CCNC(=O)[C@H]([C@@H](C)O)NC(=O)[C@H](CCNCS(=O)(=O)O)NC(=O)[C@H](CCN)NC(=O)[C@H]([C@@H](C)O)NC(=O)[C@@H](Cc2ccccc2)NC(=O)[C@H](CCN)NC1=O)[C@@H](C)O [Compound 111, 6-methylheptanoyl-Dab-Thr-D-Ser-ring(4-10)[Dab-Dab-D-Phe-Thr-Dab-Dab(CH2SO3H)-Thr]] ({Heptanoyl(6-Me)}-[Dab]T[dS][Dab][Dab][dF]T[Dab][Dab(CH2SO3H)]T; lactam 4-C) | > 500 | 0.5 (≈ 0.397 µM) | 0.25 (≈ 0.199 µM) | 0.125 (≈ 0.0993 µM) | 0.06 (≈ 0.0477 µM) | 0.06 (≈ 0.0477 µM) | 0.125 (≈ 0.0993 µM) | 0.25 (≈ 0.199 µM) | 0.06 (≈ 0.0477 µM)
6 | CCCCCCCCC(=O)N[C@@H](CCN)C(=O)N[C@H](C(=O)N[C@H](CN)C(=O)N[C@H]1CCNC(=O)[C@H]([C@@H](C)O)NC(=O)[C@H](CCN)NC(=O)[C@H](CCN)NC(=O)[C@H]([C@@H](C)O)NC(=O)[C@@H](Cc2ccccc2)NC(=O)[C@H](CCN)NC1=O)[C@@H](C)O [Compound 5, Nonanoyl-Dab-Thr-D-Dap-ring(4-10)[Dab-Dab-D-Phe-Thr-Dab-Dab-Thr]] (Nonanoyl-[Dab]T[dDap][Dab][Dab][dF]T[Dab][Dab]T; lactam 4-C) | 380 ± 30.5 (≈ 323 µM) | 0.5 (≈ 0.425 µM) | 0.06 (≈ 0.051 µM) | 0.06 (≈ 0.051 µM) | 0.06 (≈ 0.051 µM) | 0.06 (≈ 0.051 µM) | 0.06 (≈ 0.051 µM) | 0.06 (≈ 0.051 µM) | 0.06 (≈ 0.051 µM)
7 | CC[C@H](C)CCCCC(=O)N[C@@H](CCN)C(=O)N[C@H](C(=O)N[C@@H](CCCN)C(=O)N[C@H]1CCNC(=O)[C@H]([C@@H](C)O)NC(=O)[C@H](CCN)NC(=O)[C@H](CCN)NC(=O)[C@H](CC(C)C)NC(=O)[C@@H](Cc2ccccc2)NC(=O)[C@H](CCN)NC1=O)[C@@H](C)O [Compound 46, (S)-6-methyloctanoyl-Dab-Thr-Orn-ring(4-10)[Dab-Dab-D-Phe-Leu-Dab-Dab-Thr]] (X1-[Dab]T[Orn][Dab][Dab][dF]L[Dab][Dab]T; lactam 4-C) | 287 ± 10.7 (≈ 236 µM) | 0.25 (≈ 0.205 µM) | ≤0.03 | ≤0.03 | 0.03 (≈ 0.0246 µM) | 0.03 (≈ 0.0246 µM) | ≤0.03 | 0.125 (≈ 0.103 µM) | 0.06 (≈ 0.0493 µM)
8 | CCCCCCCC(=O)N[C@@H](CCCN)C(=O)N[C@H](C(=O)N[C@H](CO)C(=O)N[C@H]1CCNC(=O)[C@H]([C@@H](C)O)NC(=O)[C@H](CCN)NC(=O)[C@H](CCN)NC(=O)[C@H]([C@@H](C)O)NC(=O)[C@@H](Cc2ccccc2)NC(=O)[C@H](CCN)NC1=O)[C@@H](C)O [Compound 58, Octanoyl-Orn-Thr-D-Ser-ring(4-10)[Dab-Dab-D-Phe-Thr-Dab-Dab-Thr]] (Octanoyl-[Orn]T[dS][Dab][Dab][dF]T[Dab][Dab]T; lactam 4-C) | > 500 | 4 (≈ 3.39 µM) | 64 (≈ 54.3 µM) | 0.5 (≈ 0.424 µM) | 0.125 (≈ 0.106 µM) | 0.125 (≈ 0.106 µM) | 0.25 (≈ 0.212 µM) | 0.25 (≈ 0.212 µM) | 0.25 (≈ 0.212 µM)
9 | CC[C@H](C)CCCCC(=O)N[C@@H](CCN)C(=O)N[C@H](C(=O)N[C@H](CN)C(=O)N[C@H]1CCNC(=O)[C@H]([C@@H](C)O)NC(=O)[C@H](CCN)NC(=O)[C@H](CCN)NC(=O)[C@H](CC(C)C)NC(=O)[C@@H](Cc2ccccc2)NC(=O)[C@H](CCN)NC1=O)[C@@H](C)O [Compound 31, (S)-6-methyloctanoyl-Dab-Thr-D-Dap-ring(4-10)[Dab-Dab-D-Phe-Leu-Dab-Dab-Thr]] (X1-[Dab]T[dDap][Dab][Dab][dF]L[Dab][Dab]T; lactam 4-C) | 222 ± 10.2 (≈ 186 µM) | 0.25 (≈ 0.21 µM) | 0.03 (≈ 0.0252 µM) | 0.03 (≈ 0.0252 µM) | 0.03 (≈ 0.0252 µM) | 0.03 (≈ 0.0252 µM) | 0.03 (≈ 0.0252 µM) | 0.03 (≈ 0.0252 µM) | 0.03 (≈ 0.0252 µM)
10 | CCCCCCCC(=O)N[C@@H](CCN)C(=O)N[C@H](C(=O)N[C@H](CO)C(=O)N[C@H]1CCNC(=O)[C@H]([C@@H](C)O)NC(=O)[C@H](CN)NC(=O)[C@H](CCN)NC(=O)[C@H]([C@@H](C)O)NC(=O)[C@@H](Cc2ccccc2)NC(=O)[C@H](CCN)NC1=O)[C@@H](C)O [Compound 83, Octanoyl-Dab-Thr-D-Ser-ring(4-10)[Dab-Dab-D-Phe-Thr-Dab-Dap-Thr]] (Octanoyl-[Dab]T[dS][Dab][Dab][dF]T[Dab][Dap]T; lactam 4-C) | > 500 | 64 (≈ 55.6 µM) | >64 | 0.5 (≈ 0.435 µM) | 0.06 (≈ 0.0522 µM) | 0.06 (≈ 0.0522 µM) | 0.25 (≈ 0.217 µM) | 0.06 (≈ 0.0522 µM) | ≤0.03
11 | CC[C@H](C)CCCCC(=O)N[C@@H](CCN)C(=O)N[C@H](C(=O)N[C@@H](CN)C(=O)N[C@H]1CCNC(=O)[C@H]([C@@H](C)O)NC(=O)[C@H](CCN)NC(=O)[C@H](CCN)NC(=O)[C@H]([C@@H](C)O)NC(=O)[C@@H](Cc2ccccc2)NC(=O)[C@H](CCN)NC1=O)[C@@H](C)O [Compound 6, (S)-6-methyloctanoyl-Dab-Thr-Dap-ring(4-10)[Dab-Dab-D-Phe-Thr-Dab-Dab-Thr]] (X1-[Dab]T[Dap][Dab][Dab][dF]T[Dab][Dab]T; lactam 4-C) | > 500 | 0.125 (≈ 0.106 µM) | 0.03 (≈ 0.0255 µM) | ≤0.03 | ≤0.03 | ≤0.03 | ≤0.03 | ≤0.03 | ≤0.03
